Peptide text beside a SMILES is read from it. * marks the point of attachment. Cbz = O=C(OCc1ccccc1)*
Tests used:
[1] = system: POLG1 levels; assay: POLG1 immunofluorescence in patient fibroblasts after treatment with protease inhibitors; type: cell-based, human; conditions: 5 hours
Description: (§1) Cells plated on slides were fixed with 2% PFA and permeabilized with 0.5% Triton X-100. The slides were incubated in blocking buffer (BSA 5% in PBS) for 1 h then with the primary antibody (POLγ and HTRA3 purchased from SantaCruz Biotechnology, or as available from any other provider) for 1 h at room temperature. A second, fluorescent antibody (goat anti-mouse and goat anti-rabbit Alexa® Fluor 488, Alexa® Fluor 555, conjugated secondary antibodies from Invitrogen or by any other provider), was incubated for 1-2 h at room temperature, and DNA was stained with 10 μg/ml Hoechst.
(§2) Image analysis was carried out using Perkin-Elmer Ultraview RS Nipkow-spinning disk confocal microscope. Three-dimensional reconstruction of all the z-stacks was achieved using the 3D-volume rendering of IMARIS software (Bitplane). A regular fluorescence microscope can also be used, including for fluorescence quantification, although in this last case it will quantify one section of the cell only and not the entire volume; this quantification may be sufficient for comparative studies (normal versus patient cells). Confocal acquisition (even in the absence of spinning disk) in 3D allows quantification of the entire volume, and differences among samples are therefore more robust.
The inventors treated fibroblasts from healthy individuals, from UV^SS and from Cockayne syndrome of type I and II (the last being the more severe), with protease inhibitors MG132 (5 μM) and KSTI (100 μg/ml) for 5 hours and then tested for POLG1 levels.

[2] = system: POLG1 levels; assay: POLG1 levels in CSB-silenced HeLa cells after protease inhibitors; type: cell-based, human
[3] = system: mtDNA content; assay: qPCR of mtDNA content after MnTBAP; type: cell-based, human
[4] = system: peroxynitrite; assay: Peroxynitrite levels by DHR123 fluorescence in fibroblasts; type: cell-based, human; conditions: all control and patient cells; 24 h
Description: High levels of ROS react with nitric oxide (NO), thereby quenching NO and promoting the formation of peroxynitrite (ONOO^−), which is a powerful oxidant and nitration agent^31.
(§3) The inventors quantified fluorescence intensities on cells as summarized in Table 1 before and after treatment with MnTBAP (purchased from Millipore) of DCF and of DHR123 per cell (FIGS. 9(a) and (b)), as well as fluorescence intensities of HTRA2 (FIG. 9(c)), HTRA3 (FIG. 9(d)), POLG1 (FIG. 9(e)) per cell.
(§4) Manganase(III)tetrakis(4-benzoic acid)porphyrin (MNTBAP) is a synthetic metalloporphyrin which mimics superoxide dismutase and scavenges ROS and peroxynitrite^32.

[5] = system: reactive oxygen species (ROS); assay: ROS levels by DCFHDA (DCF) fluorescence in fibroblasts; type: cell-based, human; conditions: control and UVSS fibroblasts; 24 h
Description: The inventors assessed the relative levels of oxidative stress using the fluorescent probe dichlorofluorescein diacetate (DCFHDA), which prevalently detects reactive oxygen species (ROS)^29. They reported that whereas UV^SS cells display moderate (25%) increase of signal compared to controls, all CS cells are characterized by higher levels (1.6 to 2-fold) of oxidative stress (FIG. 8a), in agreement with a previous finding^30.
as §3, §4

[6] = system: ATP synthesis; assay: ATP tests (glycolysis/OXPHOS fraction and total ATP per cell) after MnTBAP; type: cell-based, human
[7] = system: adult primary fibroblasts IMR-90 and BJ; assay: Cell survival of primary cells in culture at longer incubation times; type: cell-based
Description: As KSTI (serine protease inhibitor) and MnTBAP (ROS/RNS scavenger) rescue the CS phenotype by 24 h treatment, the inventors assessed cell survival in culture at longer incubation times with either drug. They used doses of the drugs as those affecting CS cells: 100 μg/ml of KSTI and 100 μM MnTBAP on adult primary fibroblasts IMR-90 and BJ (from ATCC repository). […] Additional experiments are ongoing to test the survival at longer incubation times and lower doses of the drug.

[8] = system: HTRA3; assay: HTRA3 fluorescence intensity per cell after MnTBAP; type: cell-based, human
Description: as §1, §2, §3

[9] = system: HTRA2; assay: HTRA2 fluorescence intensity per cell after MnTBAP; type: cell-based, human
Description: as §1
as §2, with “robust. […]” for “robust.”

[10] = system: POLG1; assay: POLG1 fluorescence intensity per cell after MnTBAP; type: cell-based, human; conditions: normal fibroblasts
Description: as §1
as §2, with “robust. […]” for “robust.”

[11] = CS type I and type II fibroblasts 359, 797 and 816, MG132 5 μM or KSTI 100 μg/ml
[12] = CS type I fibroblasts 539 and 548, MG132 5 μM or KSTI 100 μg/ml
[13] = fibroblasts of healthy individuals and of UVSS, MG132 5 μM or KSTI 100 μg/ml

Molecule	POLG1 immunofluorescence level [1, 11]	POLG1 immunofluorescence level [1, 12]	POLG1 immunofluorescence level ([1]; CS type II fibroblasts 177, MG132 5 μM)	POLG1 immunofluorescence level [1, 13]	POLG1 levels [2]	mtDNA content ([3]; control fibroblasts)	mtDNA content ([3]; patient cells)	levels of peroxynitrite, measured by DHR123 [4]	levels of ROS, measured by DCFHDA [5]	glycolytic shift / fraction of ATP produced by mitochondria ([6]; CS cells, 24 h treatment)	total ATP levels ([6]; UVSS and CS cells)	cell survival (cell number and cell shape) ([7]; 100 μM MnTBAP, continuous treatment by 3 days)	levels of HTRA3 ([8]; CS cells)	levels of HTRA3 ([8]; UVSS cells)	levels of HTRA3 ([8]; control cells)	HTRA2 reduction ([9]; UVSS and all CS cells, compared with control cells)	levels of serine protease HTRA2 ([9]; control cells)	levels of POLG1 [10]	cell survival (cell number and cell shape) ([7]; 100 μg/ml KSTI, continuous treatment by 6 days)
CC(C)C[C@@H](C=O)NC(=O)[C@H](CC(C)C)NC(=O)[C@H](CC(C)C)NC(=O)OCc1ccccc1 [MG132, benzyl N-[(2S)-4-methyl-1-[[(2S)-4-methyl-1-[[(2S)-4-methyl-1-oxopentan-2-yl]amino]-1-oxopentan-2-yl]amino]-1-oxopentan-2-yl]carbamate] (Cbz-Leu-Leu-Leu-aldehyde)	POLG1 levels exceeded those of untreated healthy individuals	Significant modifications in two CS type I fibroblasts (539 and 548) were not observed	increased to levels of healthy individual	increased levels of POLG1 immunofluorescence	restored normal POLG1 levels														
O=C(O)c1ccc(/C2=C3\C=CC(=N3)/C(c3ccc(C(=O)O)cc3)=c3/cc/c4[n]3[Mn]([Cl])[n]3c2ccc3/C(c2ccc(C(=O)O)cc2)=C2/C=CC(=N2)\C=4c2ccc(C(=O)O)cc2)cc1 [MnTBAP, Manganese (III) tetrakis (4-benzoic acid) porphyrin chloride]						does not change the mtDNA content	becomes close to the value of controls	greatly reduced	decreased by two thirds	attenuated	remain relatively high	did not show effect on cell survival	restored control levels of HTRA3	did reduce	increased the levels of HTRA3	dramatically higher	reduce by one half	increased levels of POLG1	
KSTI: Kunitz soybean trypsin inhibitor, a natural serine protease inhibitor (protein) DFVLDNEGNPLENGGTYYILSDITAFGGIRAAPTGNERCPLTVVQSRNELDKGIGTIISSPYRIRFIAEGHPLSLKFDSFAVIMLCVGIPTEWSVVEDLPEGPAVKIGENKDAMDGWFRLERVSDDEFNNYKLVFCPQQAEDDKCGDIGISIDHDDGTRRLVVSKNKPLVVQFQKLDKESL	POLG1 levels exceeded those of untreated healthy individuals	Significant modifications in two CS type I fibroblasts (539 and 548) were not observed		increased levels of POLG1 immunofluorescence	restored normal POLG1 levels														did not show effect on cell survival

Reference: US11287433B2, “Methods for in vitro investigating mitochondrial replication dysfunction in a biological sample, kits and uses thereof, therapeutic methods against progeroid-like syndromes or symptoms and screening method for identifying particular protease inhibitor(s) and/or nitroso-redox stress scavenger …” (INSTITUT PASTEUR, priority 2014, dated 2022)
